Molecular target: T1, Type-1 angiotensin II receptor (Oryctolagus cuniculus, UniProt P34976)
T1 sequence (P34976 whole entry): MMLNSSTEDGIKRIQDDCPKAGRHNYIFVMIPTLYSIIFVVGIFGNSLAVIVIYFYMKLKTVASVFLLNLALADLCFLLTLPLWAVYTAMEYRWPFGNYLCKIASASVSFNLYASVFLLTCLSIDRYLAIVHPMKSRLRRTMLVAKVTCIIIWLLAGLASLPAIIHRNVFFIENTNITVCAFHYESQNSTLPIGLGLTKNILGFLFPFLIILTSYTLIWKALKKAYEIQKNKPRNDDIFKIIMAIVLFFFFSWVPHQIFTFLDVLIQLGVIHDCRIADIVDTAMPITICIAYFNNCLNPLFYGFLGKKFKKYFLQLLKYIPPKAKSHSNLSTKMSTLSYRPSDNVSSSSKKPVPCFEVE
Assay: Antagonist activity at AT1 receptor in rabbit aorta membranes
Type: cell membranes, Membrane

IC50: 24 nM
Compound: CCCCC(=O)Nc1ccc(C)c(-n2nc(CCCC)n(Cc3ccc(-c4ccccc4S(=O)(=O)NC(=O)c4ccccc4Cl)cc3)c2=O)c1
